Reference: patent US20180201662A1, “PEPTIDE FOR PROMOTING CELL MIGRATION AND/OR SKIN WOUND HEALING, PHARMACEUTICAL COMPOSITION CONTAINING THE SAME, AND APPLICATION THEREOF” (Industrial Technology Research Institute, priority 2016, published 2018)
Where no end group is shown, it is not given here. [ ]: non-standard residue; d: D form.

Tests used:
Type in all cases: cell-based
[1] = tested on: human keratinocyte cell line HaCaT; experiment: MMP9 secretion of human keratinocyte cell line HaCaT stimulated with peptides (ELISA); settings: 48 hours; peptides 1.5, 1 and 0.5 mg/ml vs IL-6 1000 and 100 ng/ml; FIG. 9
Method: 5. Detection of MMP9 Secretion of Human Keratinocyte Cell Line HaCaT Stimulated with Peptides
Peptides were added to respective wells of a culturing plate to stimulate HaCaT cells for 48 hours. HaCaT cells not stimulated were used as a blank group.
5.2.1 MMP9 secreted from HaCaT cells to the supernatant of the culture was detected by a MMP9 kit (R&D systems, Human MMP-9 DuoSet ELISA (DY911)).
5.2.2 Absorbance of the supernatant of the culture at 450-540 nm was detected by a SpectraMax M5 microplate reader. Detection limitation of this ELISA kit to MMP9 is about […].

[2] = tested on: human monocyte-derived macrophages; experiment: TNF-α secretion of monocyte-derived macrophages stimulated with peptides (ELISA)
Method: (§1) Peripheral blood mononuclear cells were isolated from leukocytes in the blood of healthy donors by Ficoll Hypaque.
(§2) Monocytes were isolated from the peripheral blood mononuclear cells by using Human MACS CD14 Isolation Kit.
(§3) Monocytes (2×10^6 cells/mL) were seeded in a 6-well plate containing 2 mL fresh complete medium and cultured at 5% CO2, 37° C. for 6 days. The medium was changed every 2-3 days to make the monocytes differentiate to macrophages.
2. Detection of TNF-α Secretion of Monocyte-Derived Macrophages Stimulated with Peptides
Peptides were added to respective wells of a culturing plate to stimulate macrophages for 48 hours. Macrophages not stimulated were used as a blank group.
2.2.1 TNF-α secreted from macrophages to the supernatant of the culture was detected by a human TNF-α kit.
2.2.2 Absorbance of the supernatant of the culture at 450-540 nm was detected by a SpectraMax M5 microplate reader. Detection limitation of this ELISA kit to TNF-α is about […].

[3] = tested on: human monocyte-derived macrophages; experiment: MCP-1 secretion of human monocyte-derived macrophages stimulated with peptides (ELISA)
Method: as §1, §2, §3
(§4) 3. Detections of MCP-1 Secretion of Human Umbilical Vein Endothelial Cells HUVECs and Human Monocyte-Derived Macrophages Stimulated with Peptides
(§5) Peptides were added to respective wells of a culturing plate to stimulate HUVECs for 24-48 hours, or to stimulate macrophages for 48 hours. In the experiment for macrophages, macrophages not stimulated were used as a blank group.
(§6) 3.2.1 MCP-1 respectively secreted from HUVECs and macrophages to the supernatant of the culture was detected by a […].
(§7) 3.2.2 Absorbance of the supernatant of the culture at 450-540 nm was detected by a SpectraMax M5 microplate reader. Detection limitation of this ELISA kit to MCP-1 is about […].

[4] = tested on: human keratinocyte cell line HaCaT; experiment: Cell migration analysis of human keratinocyte cell line HaCaT stimulated with peptides (scratch); settings: compared to control group; concentrations of 300 μg/ml, 660 μg/ml and 1000 μg/ml; 18 hour; FIG. 3A, 3B
Method: 4. Cell Migration Analysis of Human Keratinocyte Cell Line HaCaT Stimulated with Peptides
4.1 Each well of a 12-well culturing plate was coated with 100 μg/ml of collagen (in 0.02N acetic acid) (0.5 ml/well).
4.2 The culturing plate was placed at 37° C. for 1 hour, and then was washed with Dulbecco's phosphate buffered saline (DPBS) one time.
4.3 HaCaT cells were seeded in the culturing plate with DMEM containing serum (5×10^5 cells/well), and the final serum concentration for each well was 10%.
4.4 The cells were cultured in a condition of 5% CO2, 37° C.
4.5 The medium was replaced with DMEM containing 0.6% serum for serum starvation and culture the cells overnight.
4.6 The bottom of the well of the culturing plate was scraped with 1000 μl tips, and the culturing plate was washed with Dulbecco's phosphate buffered saline twice.
4.7 The cells and peptides were cultured in DMEM containing 0.6% serum. HaCaT cells not stimulated with peptides or growth factors were used as a control group.
4.8 Photographs were taken at 0 hour and 18 hour.
4.9. The photographs were analyzed by Celllmage Comp software, and the migration distances for cells were calculated.

[5] = tested on: human umbilical vein endothelial cells (HUVEC); experiment: MCP-1 secretion of human umbilical vein endothelial cells HUVECs stimulated with peptides (ELISA); settings: Peptide 6 660 and 165 μg/ml, IL-6 200 and 50 ng/ml, FIG. 2A
Method: as §4, §5, §6, §7

[6] = macrophages of Donor 4, 48 hours, peptides up to 250 μg/ml, IL-6 100 ng/ml and 50 ng/ml, FIG. 7
[7] = macrophages of Donor 4, 48 hours, peptides 50 ng/ml-250 μg/ml vs IL-6 100 and 50 ng/ml, FIG. 8
[8] = macrophages of Donor 5, 48 hours, peptides 50 μg/ml, IL-6 200 ng/ml, FIG. 12
[9] = macrophages of Donor 5, 48 hours, peptides 50 μg/ml vs IL-6 200 ng/ml, FIG. 13
[10] = macrophages of Donors 1-3, 48 hours, Peptide 6 up to 1000 μg/ml, IL-6 50 ng/ml, FIG. 1A-1C
[11] = macrophages of Donors 1-3, 48 hours, Peptide 6 125-1000 μg/ml, IL-6 5-200 ng/ml, FIG. 2B-2D

Substance | MMP9 secretion of HaCaT [1] | TNF-α secretion of macrophages [2, 6] | MCP-1 secretion of macrophages [3, 7] | TNF-α secretion of macrophages [2, 8] | MCP-1 secretion of macrophages [3, 9] | TNF-α secretion of macrophages [2, 10] | cell migration of HaCaT [4] | MCP-1 secretion of HUVECs [5] | MCP-1 secretion of macrophages [3, 11]
ITRI-2: isoform of Peptide 6 (SEQ ID NO. 6) with one D-form amino acid: valine at position 13 (NRFESSEEQARA[dV]QMSTKVLIQFLQKKA) | a higher level of MMP9 secretion than IL-6 | a low level of TNF-α | a higher level of MCP-1 secretion than IL-6 | – | – | – | – | – | –
6M14: short form peptide of Peptide 6, sequence SEQ ID NO. 3 (EQARAVQMSTKVLI) [Peptide 6M14] | – | – | – | almost do not induce TNF-α secretion | a higher level of MCP-1 secretion than IL-6 | – | – | – | –
Peptide 6: IL-6-derived peptide, sequence SEQ ID NO. 6, corresponds to amino acids of positions 102 to 129 of mature form IL-6 (NRFESSEEQARAVQMSTKVLIQFLQKKA) | a higher level of MMP9 secretion than IL-6 | a low level of TNF-α | a higher level of MCP-1 secretion than IL-6 | almost do not induce TNF-α secretion | a higher level of MCP-1 secretion than IL-6 | does not induce macrophages to secrete TNF-α | can promote cell migration | a great quantity of MCP-1 | a great quantity of MCP-1
IL-6: interleukin; mature form has the sequence of SEQ ID NO. 1; comparator | – | a great quantity of TNF-α | – | a great quantity of TNF-α | – | can induce macrophages to secrete TNF-α | – | a lower quantity of MCP-1 | a lower quantity of MCP-1
